The text below walks through data of patent EP1908478B1, “Pharmaceutical preparation and method of treatment of human malignancies with arginine deprivation” (Bio-Cancer Treatment International Limited, priority 2002, dated 2003).

In experiment [1] the target is T1, pegylated Arginase (recombinant human Arginase I, SEQ ID NO: 3, modified with mPEG-SPA, MW 5,000) (Homo sapiens, UniProt P05089).
T1 sequence (P05089 1-322): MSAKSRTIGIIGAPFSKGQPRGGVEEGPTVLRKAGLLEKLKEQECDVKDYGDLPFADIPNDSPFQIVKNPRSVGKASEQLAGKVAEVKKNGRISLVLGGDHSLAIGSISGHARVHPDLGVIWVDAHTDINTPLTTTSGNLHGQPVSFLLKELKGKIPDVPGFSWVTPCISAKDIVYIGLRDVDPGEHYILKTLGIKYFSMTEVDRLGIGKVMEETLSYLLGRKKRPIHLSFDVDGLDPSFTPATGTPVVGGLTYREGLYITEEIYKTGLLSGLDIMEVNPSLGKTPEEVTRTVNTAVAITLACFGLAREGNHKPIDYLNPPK
The experiment in a line: Arginase activity, kinetic properties (method of Ikemoto et al. 1990). The conditions noted are these: substrate arginine. Type of experiment: biochemical. How it is done:
Moreover, about 1 mM of Mn^2+ ions and a temperature of 30-50 degree C are required to achieve maximum activity for the native Arginase.

A further experiment has as its target human liver Arginase (Homo sapiens, UniProt P05089). The settings on record: published value in literature; substrate arginine; cited from earlier work.
Experiment [2] has as its target T2, recombinant human Arginase I, native (non-pegylated), 6xHis-tagged, B. subtilis-expressed, SEQ ID NO: 3 (Homo sapiens, UniProt P05089).
T2 sequence (P05089 1-322): T1 sequence (P05089 1-322)
The experiment in a line: Arginase activity, kinetic properties (method of Ikemoto et al. 1990). The settings on record: substrate arginine. In kind it is biochemical.

A word on the Km: it is the substrate concentration at which the rate is half of its maximum. The term kcat denotes the maximal rate divided by the concentration of active sites.

Turning to `N=C(N)NCCC[C@H](N)C(=O)O` [arginine], the results for the Km (in experiment [1]; at human liver Arginase; in experiment [2]) were 2900 ± 300 µM, 2600 µM and 1900 ± 700 µM, respectively. Further, the Vmax turned out to be 360 µmol urea min^-1 mM^-1 in experiment [1] and 518 µmol urea min^-1. mM^-1 in experiment [2]. The kcat in experiment [2] is 2.0 ± 0.5 s⁻¹.
